Results: paper PMC6471485, “Selective Inhibitors of a Human Prolyl Hydroxylase (OGFOD1) Involved in Ribosomal Decoding” (Chemistry (Weinheim an Der Bergstrasse, Germany), 2019)

Test system: PHD enzymes in HeLa cells
Assay: HIFα Western blot in HeLa cells (activity of PHD enzymes in cells)
Format: cell-based, human
Conditions: HeLa cells treated 5 h, anti-HIF-1α Western blot
Description: supplemented with 80 µM Zn(II), 70 µM of inhibitor, all in 50 mM Tris-d11, pH 7.5, 10 % D2O, […]
Cell Culture and Immunoblotting
HeLa cells were cultured in DMEM media supplemented with 10 % fetal bovine serum, 4 mM L-glutamine, 100 U/mL penicillin, and 100 µg/mL streptomycin. Cells were treated with the indicated compounds, prepared in 1% DMSO, for 5 h. Following a PBS buffer rinse, cells were lysed in urea/SDS buffer supplemented with 1 mM dithiothreitol. Cell extracts were analyzed by SDS-PAGE, electroblotted onto PVDF membranes (Millipore) and probed with anti-HIF-1α antibody (clone 54, BD Transduction Laboratories) at 1:1000 dilution for 1 h at room temperature. The HRP-conjugated secondary antibody was then applied at room temperature for 1 h. Target proteins were detected with SuperSignal Chemiluminescent […]
ADMET in vitro Predictors
S9 liver microsome stability assays and MDCK-MDR1 efflux assays were carried out for CCT3 and CCT4 by Cyprotex (UK). Additional details are provided later in the Supporting

Molecule | HIFα stabilization in HeLa cells, in words
CC(C)(C)OC(=O)c1ccc(-n2[nH]cc(-n3ccnn3)c2=O)nc1 [IOX4, reference compound] | inhibits the hydroxylation of HIFα, preventing proteasomal degradation

Molecular target: T1, OGFOD1 (Homo sapiens, UniProt Q8N543)
T1 sequence (Q8N543 1-542): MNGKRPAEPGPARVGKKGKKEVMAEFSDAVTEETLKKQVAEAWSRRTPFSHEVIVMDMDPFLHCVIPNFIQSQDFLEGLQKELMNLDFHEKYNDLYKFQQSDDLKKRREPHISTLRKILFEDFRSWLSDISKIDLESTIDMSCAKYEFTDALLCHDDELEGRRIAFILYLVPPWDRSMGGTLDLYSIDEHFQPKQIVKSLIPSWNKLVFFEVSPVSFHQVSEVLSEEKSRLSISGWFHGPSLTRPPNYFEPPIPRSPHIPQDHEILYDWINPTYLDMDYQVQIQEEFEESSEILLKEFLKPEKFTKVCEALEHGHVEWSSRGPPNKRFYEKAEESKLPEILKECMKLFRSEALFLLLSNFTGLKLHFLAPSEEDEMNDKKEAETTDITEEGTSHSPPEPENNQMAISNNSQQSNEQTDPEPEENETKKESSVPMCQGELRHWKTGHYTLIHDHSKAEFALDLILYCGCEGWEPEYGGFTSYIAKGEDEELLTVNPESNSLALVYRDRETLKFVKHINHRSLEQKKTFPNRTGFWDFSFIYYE
Assay: OGFOD1 inhibition assay: hydroxylation of RPS23 51-70 peptide by MALDI-TOF MS
Format: biochemical
Conditions: IC50 against OGFOD1, 1 μM OGFOD1; minimum measurable IC50 0.5 μM; values for 24 and 25 regarded as preliminary
Description: (§1) OGFOD1 inhibition assays were performed by determining the extent of hydroxylation of a 20mer fragment of human ribosomal protein S23 (RPS23) containing residues 51-70 (H2N- […]
(§2) -CONH2) by matrix-assisted laser desorption/ionization time-of-flight mass spectrometry (MALDI-TOF MS) using a Waters Micromass MALDI micro MX mass spectrometer and MassLynx 4.1, as previously described.[7,8] The optimized hydroxylation assay involved incubation of OGFOD1 (1 µM) with inhibitor (1 % v/v in DMSO) in the presence of (NH4)2Fe(SO4)2 (50 µM), the disodium salt of 2-oxoglutarate (25 µM), […]
OGFOD1 was pre-incubated with inhibitor for 5 min before initiation of the reaction via the addition of the other reagents. Reactions were quenched with formic acid (1 % v/v) after 15 min. Samples were prepared for MALDI using α-cyano-4-hydrocinnamic acid (CHCA; prepared in 50 % acetonitrile) as a matrix. Dose-responses were assessed in 8-point triplicates, normalized to a no enzyme negative control and a no inhibitor positive control. Non-linear regression analysis was performed using Prism (GraphPad). […]

Molecule | IC50
Cn1c(O)c(C(=O)c2ccccc2)c(=O)n(C)c1=O [compound 24] | 30 µM
Cn1c(O)c(C(=O)Cc2ccccc2)c(=O)n(C)c1=O [compound 25] | 2 µM

Same assay, conditions: OGFOD1 1 μM (Figure 3B)

Molecule | OGFOD1 inhibition in fragment-based screening, in words
CC(=O)c1c(O)cccc1O [compound 16, 2′,6′‐dihydroxyacetophenone] | relatively poor OGFOD1 inhibitor
CC(=O)c1c(O)n(C)c(=O)n(C)c1=O [compound 20] | improved potency
CC(=O)C1CCCCC1=O (stereo not drawn) [compound 11, 2‐acetylcyclohexanone] | poor inhibitors
CC(=O)c1c(O)[nH]c(=O)[nH]c1=O [compound 18] | improved potency
CCOC(=O)CC(=O)OCC [compound 10, diethyl malonate] | poor inhibitors
CC(=O)c1c(O)[nH]c(=S)[nH]c1=O [compound 19] | did not substantially increase the potency

Same assay, conditions: OGFOD1 1 µM; inhibitors at 100, 20, 5, 1 µM (Figure S9) or 5 and 1 µM (Figure S10)

Molecule | relative potency of OGFOD1 inhibition in barbiturate SAR, in words
Cn1c(O)c(C(=O)CCCCc2ccccc2)c(=O)n(C)c1=O [compound 28] | did not provide a substantial increase in potency
O=C(CCC1CCCC1)c1c(O)n(C2CCCCC2)c(=O)n(C2CCCCC2)c1=O [compound 31] | less potent than 29
Cn1c(O)c(C(=O)NCc2ccccc2)c(=O)n(C)c1=O [compound 46] | had little effect
CCn1c(O)c(C(=O)CCC2CCCC2)c(=O)n(CC)c1=O [compound 30] | less potent than 29
Cn1c(O)c(C(=O)CCCc2ccccc2)c(=O)n(C)c1=O [compound 27] | did not provide a substantial increase in potency

Same assay, conditions: OGFOD1 and PHD2 1 µM each; 23 at 100 µM (Figure 4; Figure S6)

Molecule | selectivity for OGFOD1 over PHD2, in words
CCOC(=O)CNC(=O)c1c(O)n(C)c(=O)n(C)c1=O [compound 23] | did not manifest clear selectivity for OGFOD1 over PHD2
CCOC(=O)CNC(=O)c1c(O)[nH]c(=O)[nH]c1=O [compound 22] | did not manifest clear selectivity for OGFOD1 over PHD2

Same assay, conditions: inhibitor 100 µM, OGFOD1 1 µM (Figures S1, S2)

Molecule | inhibition of OGFOD1 hydroxylation activity, in words
CCC(O)=C1C(=O)CC(C(=O)O)CC1=O (stereo not drawn) [compound 4, prohexadione‐calcium, reference compound] | inhibition of OGFOD1
trinexapac‐ethyl [compound 5, reference compound] | inhibition of OGFOD1
Cc1nc(C(=O)NCC(=O)O)c(O)c2ccc(Oc3ccccc3)cc12 [compound 8, reference compound] | inhibited OGFOD1
O=C(O)CNC(=O)c1nc(Cl)c2ccccc2c1O [compound 7, reference compound] | inhibited OGFOD1
O=C1CCCC(=O)C1C(=O)c1ccc(C(F)(F)F)cc1[N+](=O)[O-] [compound 1, nitisinone, reference compound] | is an OGFOD1 inhibitor
O=C(O)CNC(=O)c1c(O)c2ccccc2n(Cc2ccccc2)c1=O [compound 9, reference compound] | inhibited OGFOD1

Test system: not given
Assay: not given
Conditions: not given

Molecule | melting point
Cn1c(O)c(C(=O)CCC2CCCCC2)c(=O)n(C)c1=O | 58 °C
Cn1c(O)c(C(=O)[C@H]2C[C@H]2c2ccccc2)c(=O)n(C)c1=O | 111 °C
Cn1c(O)c(C(=O)C2Cc3ccccc3C2)c(=O)n(C)c1=O | 120 °C
CC(CC(=O)c1c(O)n(C)c(=O)n(C)c1=O)c1ccccc1 (stereo not drawn) | 100 °C
Cc1cccc(CCC(=O)c2c(O)n(C)c(=O)n(C)c2=O)c1 | 131 °C
Cc1ccc(CCC(=O)c2c(O)n(C)c(=O)n(C)c2=O)cc1 | 140 °C

Molecular target: T2, PHD2181-426 (Homo sapiens, UniProt Q9GZT9)
T2 construct: 181-426 (1 µM) was
Assay: PHD2 inhibition assay: hydroxylation of HIF-1a CODD peptide by MALDI-TOF MS
Format: biochemical
Conditions: inhibitor 100 µM, PHD2181-426 1 µM (Figures S2, S8)
Description: as §1, §2
OGFOD1 was pre-incubated with inhibitor for 5 min before initiation of the reaction via the addition of the other reagents. Reactions were quenched with formic acid (1 % v/v) after 15 min. Samples were prepared for MALDI using α-cyano-4-hydrocinnamic acid (CHCA; prepared in 50 % acetonitrile) as a matrix. Dose-responses were assessed in 8-point triplicates, normalized to a no enzyme negative control and a no inhibitor positive control. Non-linear regression analysis was performed using Prism (GraphPad).
PHD2181-426 inhibition assays were performed by determining the extent of hydroxylation of a HIF-1a CODD peptide substrate (HIF-1a residues 556-574), using MALDI-TOF MS as described with OGFOD1.[8] The optimized hydroxylation assay involved incubation of PHD2181-426 (1 µM) with inhibitor (1 % v/v in DMSO) in the presence of (NH4)2Fe(SO4)2 (10 µM), the disodium salt of 2-oxoglutarate (60 µM), sodium ascorbate (100 µM), and HIF-1aCODD 556-574 (50 µM) in HEPES (50 mM, pH 7.5) at 37 °C for 15 min. The FIH assay employed MALDI-TOF MS detection of hydroxylation. Reactions consisted of FIH […]
(50 nM), ankyrin peptide (50 µM; […]), the disodium salt of 2- […]
oxoglutarate (100 µM), sodium ascorbate (100 µM), and (NH4)2Fe(SO4)2 (10 µM), and […]

T2 sequence (Q9GZT9 181-426 limits assumed): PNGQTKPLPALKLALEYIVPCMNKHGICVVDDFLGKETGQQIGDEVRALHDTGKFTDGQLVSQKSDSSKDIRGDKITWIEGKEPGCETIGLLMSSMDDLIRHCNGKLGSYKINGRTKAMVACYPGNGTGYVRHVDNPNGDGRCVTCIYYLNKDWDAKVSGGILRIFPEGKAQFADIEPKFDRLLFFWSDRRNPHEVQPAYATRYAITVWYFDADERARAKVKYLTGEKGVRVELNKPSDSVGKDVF

Molecule | inhibition of PHD2 hydroxylation activity, in words
Cn1c(O)c(C(=O)c2ccccc2)c(=O)n(C)c1=O [compound 24] | Lack of inhibition
Cn1c(O)c(C(=O)Cc2ccccc2)c(=O)n(C)c1=O [compound 25] | Lack of inhibition
